Entries after “also recorded” stand apart in the source; their conditions may differ. [FANA-N] = 2'-fluoro-arabino (N: the base); {32P} = 5'-32P radiolabel (phosphate); {FAM} = fluorescein (FAM) label

This is an account of results in patent US9765328B2, “Nuclease-resistant DNA analogues” (Arizona Board of Regents on Behalf of Arizona State …, priority 2014, dated 2017).

Series [1] is described as follows: Chemical stability assay, alkaline conditions (1 M NaOH). Type of series: physicochemical. The following applies: 65° C. From the text:
The same protocol was used to monitor alkaline stability.

In series [2] the test system is phosphodiesterase I from Crotalus adamanteus venom.
Series [3] can be described thus: Chemical stability assay in pepsin-free simulated gastric fluid (SGF). Particulars: SGF pH 1.25, 37° C.
Protocol: Pepsin-free simulated gastric fluid (SGF) was prepared by autoclaving a solution of NaCl (200 mg) in nanopure water (99 mL) followed by addition of 6N HCl (0.7 mL, pH 1.25). TNA (30 pmol), DNA (45 pmol), and RNA (5 pmol) were added to SGF (20 μL) and incubated for the specified time (up to 72 hours). Following the incubation, the reaction mixture was neutralized by the addition of 1N NaOH and the solutions were stored at −20° C. until the time course was complete. The volume was then reduced to 10 μL, mixed with 10 μL of loading buffer (8 M Urea, 5 mM Tris.HCl, 20 mM EDTA, pH 7.5), and the oligonucleotides were analyzed by denaturing PAGE and imaged.
We compared the chemical stability of the all-TNA strand to DNA and RNA oligonucleotides of identical length and similar sequence. […] For these experiments, pepsin-free simulated gastric fluid (SGF, pH 1.25) and 1 M NaOH were used to maintain parity with previous antisense studies^26. For the acidic regime, the TNA, DNA, and RNA samples were incubated in SGF for 72 hours at 37° C.
In the next series the test system is SVPE. The following applies: literature; cited from earlier work.

Regarding “5′-Fam-CCCCCCCCCCCC-3′ (5' {FAM}, sugars by position and backbone not given here) [DNA]”, the “time after which trace amounts of the sample are still visible in 1 M NaOH” value in series [1] was found to be 12 h. For the same substance, in series [2], the “stability against snake venom phosphodiesterase (SVPE)” value was “digested”. For the same substance, the “strand stability in simulated gastric fluid after 72 hours (3 days)” value in series [3] (72 hours) was “stable; also recorded: remained intact”.
In the case of “5′-32P-UCUCUCUCUCUC-3′ (RNA, 5' {32P}, backbone not given here)”, the “time within which the sample is degraded in 1 M NaOH” value in series [1] was no more than 30 min. Also, the “sample degraded in SGF in the first 12 hours” value in series [3] (first 12 hours) was 85%.
For the substance “2′-fluoro-arabino nucleic acid (AAAACCCACACCACCA; all [FANA-N], backbone and methylation of C not given here)”, the “t1/2 in human serum” value is less than 3 h. Moreover, in the series on SVPE, the “degradation in the presence of SVPE” value is recorded as “degrade in minutes”.
In the case of “3′-tttCtCtCtCtt-2′ [size-matched TNA/DNA hybrid]”, the “products of SVPE treatment (FIG. 2)” value in series [2] was “series of shorter truncated products”.
